Reference: ChEMBL document CHEMBL2440019, “Discovery of an in vivo chemical probe of the lysine methyltransferases G9a and GLP” (J Med Chem, 2013)

What was measured:
Liver = test: Half life in mouse liver microsomes; assay type: ADME, Microsome
Plasma [1] = test: Cmax in Swiss albino mouse plasma at 5 mg/kg, ip; assay type: ADME, organism-based; design: dose 5 mg/kg, route intraperitoneal; conditions: in vivo
Plasma [2] = test: AUC (0 to 24 hrs) in Swiss albino mouse plasma at 5 mg/kg, ip; assay type: ADME, organism-based; design: time < 24 hr, dose 5 mg/kg, route intraperitoneal; conditions: in vivo
[3] = target: T1, Histone-lysine N-methyltransferase EHMT2 (Homo sapiens, UniProt Q96KQ7)
T1 sequence (Q96KQ7 whole entry): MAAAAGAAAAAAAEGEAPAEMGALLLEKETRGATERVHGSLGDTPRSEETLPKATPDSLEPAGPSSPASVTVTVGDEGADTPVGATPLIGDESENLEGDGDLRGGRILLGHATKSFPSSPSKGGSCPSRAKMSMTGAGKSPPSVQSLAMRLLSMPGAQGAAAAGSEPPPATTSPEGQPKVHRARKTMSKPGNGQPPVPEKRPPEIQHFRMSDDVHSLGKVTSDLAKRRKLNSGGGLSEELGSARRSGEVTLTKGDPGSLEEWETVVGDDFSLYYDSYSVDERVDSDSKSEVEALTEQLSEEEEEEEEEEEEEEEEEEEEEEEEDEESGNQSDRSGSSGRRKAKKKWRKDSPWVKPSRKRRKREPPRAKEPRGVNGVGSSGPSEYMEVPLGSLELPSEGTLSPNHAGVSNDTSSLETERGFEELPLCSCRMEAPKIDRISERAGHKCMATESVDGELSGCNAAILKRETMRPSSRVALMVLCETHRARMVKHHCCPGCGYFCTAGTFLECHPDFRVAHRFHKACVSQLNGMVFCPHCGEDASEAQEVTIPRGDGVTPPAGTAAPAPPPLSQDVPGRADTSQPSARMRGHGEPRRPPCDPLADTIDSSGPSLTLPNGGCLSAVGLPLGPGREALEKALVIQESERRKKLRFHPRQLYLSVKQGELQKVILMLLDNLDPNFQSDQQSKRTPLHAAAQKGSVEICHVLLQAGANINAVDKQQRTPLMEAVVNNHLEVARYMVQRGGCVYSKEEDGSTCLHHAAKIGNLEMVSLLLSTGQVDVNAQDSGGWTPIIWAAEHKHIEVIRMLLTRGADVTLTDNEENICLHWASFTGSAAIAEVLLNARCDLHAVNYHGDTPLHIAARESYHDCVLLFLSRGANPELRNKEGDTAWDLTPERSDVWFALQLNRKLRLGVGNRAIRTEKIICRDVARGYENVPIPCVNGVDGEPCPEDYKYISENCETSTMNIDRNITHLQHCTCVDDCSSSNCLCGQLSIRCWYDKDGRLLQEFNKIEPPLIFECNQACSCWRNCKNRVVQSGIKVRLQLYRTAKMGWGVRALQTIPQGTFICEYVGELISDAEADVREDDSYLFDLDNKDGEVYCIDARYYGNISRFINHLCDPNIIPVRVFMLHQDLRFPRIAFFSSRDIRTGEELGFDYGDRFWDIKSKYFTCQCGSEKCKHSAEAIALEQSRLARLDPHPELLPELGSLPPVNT
Description: Inhibition of lysine methyltransferase G9a (unknown origin) using [3H]-SAM as substrate after 0.25 hrs by scintillation proximity assay

MDA-MB-231 = test: cells; conditions: Homo sapiens, MDA-MB-231, 48 h
Description: Cytotoxicity against human MDA-MB-231 cells after 48 hrs by Alamar Blue assay

[4] = target: T1, Histone-lysine N-methyltransferase EHMT2; remark: listed apart in the source
Description: Inhibition of lysine methyltransferase G9a in human MDA-MB-231 cells assessed as reduction of H3K9me2 cellular level by immunofluorescence in-cell Western assay

[5] = Cmax in Swiss albino mouse brain at 5 mg/kg, ip; assay type: ADME, organism-based; design: dose 5 mg/kg, route intraperitoneal
[6] = AUC (0 to 24 hrs) in Swiss albino mouse brain at 5 mg/kg, ip; assay type: ADME, organism-based; design: time < 24 hr, dose 5 mg/kg, route intraperitoneal
Nucleic Acid = test: Ratio of drug level in brain to plasma in Swiss albino mouse at 5 mg/kg, ip; assay type: ADME, organism-based; design: dose 5 mg/kg, route intraperitoneal
PC-3 = test: Cytotoxicity against human PC3 cells after 48 hrs by Alamar Blue assay; assay type: cell-based; conditions: PC-3, 48 h
[7] = Binding affinity to sigma 2 receptor (unknown origin) by radioligand binding assay; design: species or system Homo sapiens
[8] = target: T2, Alpha-1D adrenergic receptor (Homo sapiens, UniProt P25100); test: Binding affinity to adrenergic alpha1D receptor (unknown origin) by radioligand binding assay
T2 sequence (P25100 whole entry): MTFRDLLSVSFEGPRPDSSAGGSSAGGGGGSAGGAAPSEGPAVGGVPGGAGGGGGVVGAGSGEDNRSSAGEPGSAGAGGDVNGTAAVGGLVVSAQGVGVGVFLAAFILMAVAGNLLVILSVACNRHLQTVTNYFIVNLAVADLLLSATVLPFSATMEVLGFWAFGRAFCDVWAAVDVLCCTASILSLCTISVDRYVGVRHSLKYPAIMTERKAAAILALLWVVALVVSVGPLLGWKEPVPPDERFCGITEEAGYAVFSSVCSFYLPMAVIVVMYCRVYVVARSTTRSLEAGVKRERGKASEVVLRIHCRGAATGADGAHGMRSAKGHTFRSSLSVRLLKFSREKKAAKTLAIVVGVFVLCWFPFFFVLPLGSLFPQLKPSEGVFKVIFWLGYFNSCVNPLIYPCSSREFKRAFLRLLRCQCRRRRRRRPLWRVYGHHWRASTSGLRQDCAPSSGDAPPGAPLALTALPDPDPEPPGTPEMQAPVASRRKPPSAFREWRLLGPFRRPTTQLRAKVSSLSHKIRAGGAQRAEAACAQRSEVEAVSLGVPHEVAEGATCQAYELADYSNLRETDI

[9] = target: T3, Alpha-2C adrenergic receptor (Homo sapiens, UniProt P18825); test: Binding affinity to adrenergic alpha2C receptor (unknown origin) by radioligand binding assay
T3 sequence (P18825 whole entry): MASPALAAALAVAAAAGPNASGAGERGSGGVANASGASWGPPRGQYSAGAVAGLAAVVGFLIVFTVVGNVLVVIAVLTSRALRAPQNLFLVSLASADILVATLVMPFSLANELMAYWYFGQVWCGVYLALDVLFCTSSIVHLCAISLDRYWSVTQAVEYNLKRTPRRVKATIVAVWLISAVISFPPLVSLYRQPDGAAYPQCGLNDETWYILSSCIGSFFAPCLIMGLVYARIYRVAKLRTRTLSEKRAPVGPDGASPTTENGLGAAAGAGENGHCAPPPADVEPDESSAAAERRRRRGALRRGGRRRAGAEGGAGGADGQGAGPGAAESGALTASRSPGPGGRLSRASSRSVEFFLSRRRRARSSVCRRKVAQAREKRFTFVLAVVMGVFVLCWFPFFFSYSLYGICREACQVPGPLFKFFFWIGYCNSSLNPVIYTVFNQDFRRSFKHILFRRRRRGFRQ

U2OS = test: Cytotoxicity against human U2OS cells after 48 hrs by Alamar Blue assay; assay type: cell-based
PANC-1 = test: Cytotoxicity against human PANC1 cells after 48 hrs by Alamar Blue assay; assay type: cell-based; conditions: PANC-1, 48 h
Histamine H3 receptor = Histamine H3 receptor (Homo sapiens, UniProt Q9Y5N1); test: Binding affinity to histamine H3 receptor (unknown origin) by radioligand binding assay
Sequence of Histamine H3 receptor (Q9Y5N1 whole entry): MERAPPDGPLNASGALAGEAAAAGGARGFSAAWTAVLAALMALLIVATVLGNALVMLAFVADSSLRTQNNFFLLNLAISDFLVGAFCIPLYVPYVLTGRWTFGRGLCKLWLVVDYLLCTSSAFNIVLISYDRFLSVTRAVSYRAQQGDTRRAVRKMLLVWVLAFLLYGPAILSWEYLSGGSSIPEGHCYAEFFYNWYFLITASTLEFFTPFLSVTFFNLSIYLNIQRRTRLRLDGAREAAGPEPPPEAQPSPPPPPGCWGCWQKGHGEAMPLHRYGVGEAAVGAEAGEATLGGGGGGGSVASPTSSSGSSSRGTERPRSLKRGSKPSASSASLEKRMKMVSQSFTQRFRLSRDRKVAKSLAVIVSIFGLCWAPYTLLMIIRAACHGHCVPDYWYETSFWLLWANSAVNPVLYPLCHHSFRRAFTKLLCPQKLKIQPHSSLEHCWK

## COc1cc2c(NC3CCN(C(C)C)CC3)nc(C3CCCCC3)nc2cc1OCCCN1CCCC1
Liver
  t1/2: 1.22 h
Plasma [1]
  Cmax: 66 ng/mL
Plasma [2]
  AUC: 404 ng·h/mL

## COc1cc2c(NC3CCN(C(C)C)CC3)nc(N3CCCCC3)nc2cc1OCCCN1CCCC1
[3]
  IC50: < 2.5 nM

## COc1cc2c(NC3CCN(C(C)C)CC3)nc(N3CCCCCC3)nc2cc1OCCCN1CCCC1
[3]
  IC50: < 2.5 nM

## COc1cc2c(NC3CCN(C(C)C)CC3)nc(C3CCOCC3)nc2cc1OCCCN1CCC(F)(F)CC1
Liver
  t1/2: 0.167 h
[3]
  IC50: > 50000 nM

## COc1cc2c(NC3CCN(C(C)C)CC3)nc(C3CCCCC3)nc2cc1OCCCN1CCC(F)(F)CC1
[3]
  IC50: > 26000 nM

## COc1cc2c(NC3CCN(C(C)C)CC3)nc(C3CCOCC3)nc2cc1OCCCN1CCCC1
Liver
  t1/2: 0.267 h
MDA-MB-231
  EC50: > 50000 nM
[3]
  IC50: 9 nM
[4]
  IC50: 310 nM

## COc1cc2c(NC3CCN(C4CC4)CC3)nc(N3CCS(=O)(=O)CC3)nc2cc1OCCCN1CCCC1
MDA-MB-231
  EC50: > 50000 nM
[3]
  IC50: 4 nM
[4]
  IC50: 590 nM

## COc1cc2c(NC3CCN(C4CC4)CC3)nc(N3CCC(F)(F)CC3)nc2cc1OCCCN1CCCC1
MDA-MB-231
  EC50: 14700 nM
[3]
  IC50: 3 nM
[4]
  IC50: 310 nM

## COc1cc2c(NC3CCN(C(C)C)CC3)nc(N3CC(F)(F)C(F)(F)C3)nc2cc1OCCCN1CCCC1
Liver
  t1/2: > 1.5 h
[3]
  IC50: 26 nM

## COc1cc2c(NC3CCN(C(C)C)CC3)nc(N3CCS(=O)(=O)CC3)nc2cc1OCCCN1CCCC1
[3]
  IC50: 14 nM

## COc1cc2c(NC3CCN(C(C)C)CC3)nc(N3CCOCC3)nc2cc1OCCCN1CCCC1
Liver
  t1/2: > 1.5 h
Plasma [1]
  Cmax: 731 ng/mL
[5]
  Cmax: 99 ng/mL
[6]
  AUC(0-t) at 24 h: 721 ng·h/mL
Plasma [2]
  AUC: 1061 ng·h/mL
Nucleic Acid
  BPR: 0.68
MDA-MB-231
  EC50: 23700 nM

## COc1cc2c(NC3CCN(C(C)C)CC3)nc(N3CCC(F)(F)CC3)nc2cc1OCCCN1CCCC1
PC-3
  EC50: 8900 nM
Liver
  t1/2: > 1.5 h
[7]
  Ki: 900 nM
Plasma [1]
  Cmax: 947 ng/mL
[5]
  Cmax: 68 ng/mL
[6]
  AUC(0-t) at 24 h: 412 ng·h/mL
Plasma [2]
  AUC: 1265 ng·h/mL
[8]
  Ki: 4500 nM
[9]
  Ki: > 10000 nM
Nucleic Acid
  BPR: 0.33
MDA-MB-231
  EC50: 16700 nM
U2OS
  EC50: 6000 nM
PANC-1
  EC50: 3500 nM
Histamine H3 receptor
  Ki: 45 nM
